{"source": "patent US11473045B2", "about": "“Device for in-vitro modelling in-vivo tissues of organs” (priority 2013, dated 2022)", "tested_on": "Lung bronchial epithelial cells (16HBEo-)", "description": "FIG. 14 illustrates the effects of a physiologic (10% linear), cyclic mechanical strain on the permeability of an epithelial barrier. Lung bronchial epithelial cells (16HBEo-) were seeded at a density of 250'000 cells/cm^2 onto the fibronectin-coated culturing membrane. The cells were allowed to adhere and to grow for 72 h. The cells were exposed to cyclic strain (10% linear, 0.2 Hz) for 19 h, whereas the control was kept at static conditions. […] After 2 h of incubation, the permeability of each molecule was measured with a fluorescence multiplate reader (Tecan Infinite M1000; Ex:460/Em:515 & Ex:553/Em:627).", "data": [{"substance": "FITC-sodium", "values": [{"measurement": "transmembrane permeability of stretched cells compared to control cells in static conditions", "value": "significantly increased transmembrane permeability"}]}]}
